Test results as given in ChEMBL document CHEMBL4371067, “Discovery of N-substituted 7-azaindoles as Pan-PIM kinases inhibitors - Lead optimization - Part III” (Bioorg Med Chem Lett, 2019).
Values after ≈ are worked out from the molar mass of the structure shown. Active and inactive are the calls of the source. The calls are words filed in the database; no cut-off is given here.

How the values were obtained:
[1] = Permeability in human Caco2/TC7 cells at 5 uM; format: ADME, cell-based; conditions: for Papp at 5 µM: Caco-2, read-out: permeability
[2] = target: T1, hERG (KCNH2) (Homo sapiens, UniProt Q12809); experiment: Inhibition of human ERG at 10 uM relative to control
[3] = system: KG-1; experiment: Antiproliferative activity against human KG1 cells; format: functional, cell-based
[4] = Clearance in human liver microsomes assessed as drug extraction at 5 uM; format: ADME, Microsome; conditions: for hepatic extraction ratio at 5 µM: liver microsomes, read-out: CLH
[5] = target: Serine/threonine-protein kinase PIM (Homo sapiens, UniProt P11309+Q9P1W9+Q86V86); experiment: Inhibition of PIM in human KG1 cells assessed as reduction in pS6 level; format: cell-based
[6] = target: Serine/threonine-protein kinase pim-1 (Homo sapiens, UniProt P11309); experiment: Inhibition of PIM1 (unknown origin) assessed as reduction in BAD phosphorylation at Ser-112 residue by TR-FRET assay
[7] = Efflux ratio of permeability in human Caco2/TC7 cells at 5 uM; format: ADME, cell-based; conditions: Caco-2
[8] = Thermodynamic solubility in pH 7.4 solution; format: physicochemical; conditions: buffer; for solubility thermodynamic: read-out: Therm_solubility
[9] = target: Serine/threonine-protein kinase pim-2 (Homo sapiens, UniProt Q9P1W9); experiment: Inhibition of PIM2 (unknown origin) assessed as reduction in BAD phosphorylation at Ser-112 residue by TR-FRET assay
[10] = target: T1, hERG (KCNH2); experiment: Inhibition of human ERG at 1 uM relative to control
[11] = Oral bioavailability in rat at 10 mg/kg administered as single dose; format: ADME, organism-based; conditions: in vivo
[12] = Clearance in mouse liver microsomes assessed as drug extraction at 5 uM; format: ADME, Microsome; conditions: microsomes, 5 µM
[13] = Cmax in rat at 10 mg/kg, po administered as single dose; format: ADME, organism-based; design: dose 10 mg/kg, route oral; conditions: in vivo
[14] = Half life in rat at 3 mg/kg, iv administered as single dose; format: ADME, organism-based; conditions: in vivo
[15] = Clearance in rat at 3 mg/kg, iv administered as single dose; format: ADME, organism-based; conditions: in vivo
[16] = AUC (0 to infinity) in rat at 3 mg/kg, iv administered as single dose; format: ADME, organism-based; design: dose 3 mg/kg, route intravenous, time infinity; conditions: in vivo
[17] = Volume of distribution at steady state in rat at 3 mg/kg, iv administered as single dose; format: ADME, organism-based; conditions: in vivo, read-out: Vdss
[18] = Half life in rat at 10 mg/kg, po administered as single dose; format: ADME, organism-based; conditions: in vivo
[19] = AUC (0 to infinity) in rat at 10 mg/kg, po administered as single dose; format: ADME, organism-based; design: dose 10 mg/kg, route oral, time infinity; conditions: in vivo
[20] = system: Mus musculus; experiment: In vivo inhibition of PIM in mouse xenografted with human KG1 cells assessed as reduction in phosphorylated BAD level at 25 mg/kg, po administered as single dose and measured up to 24 hrs post dose relative to control; format: functional

| Compound | Papp at 5 µM [1] [×10⁻⁶ cm/s] | hepatic extraction ratio at 5 µM [4] | EC50 [5] [nM] | IC50 [6] [nM] | Ki [6] [nM] | efflux ratio at 5 µM [7] | solubility thermodynamic [8] [µM] | IC50 [9] [nM] | inhibition at 10 µM [2] [%] | EC50 ([3]; Homo sapiens, KG-1) [nM] | inhibition at 1 µM [10] [%] | other results |
| --- | --- | --- | --- | --- | --- | --- | --- | --- | --- | --- | --- | --- |
| NC(=O)c1cc(Cl)c2c(Cl)c(C#CC3CCCO3)n([C@H]3CCCNC3)c2n1 (stereo in doubt; 20b) |  |  | 69 | 2.2 | 1.3 |  |  | 7.4 |  |  |  | bioavailability [11]: 30%; CLH [12]: 37%; permeability ([1]; caco2/tc7, 5 µM, 5 µM): 33 ×10⁻⁷ cm/s; EC50 ([3]; kg-1): 91 nM; Cmax [13]: 54 ng/mL; half-life [14]: 2.32 h; CLH ([4]; microsomes, 5 µM): 24%; clearance [15]: 150 mL/min/kg; AUC(0-inf) [16]: 324 ng·h/mL; Therm_solubility [8]: 333 µM; Vd [17]: 19.6 L/kg; half-life [18]: 3.63 h; AUC(0-inf) [19]: 326 ng·h/mL |
| CC(C)(O)C#Cc1c(Cl)c2c(Cl)cc(C(N)=O)nc2n1[C@H]1CCCNC1 | 0.14 | 0 | 36 | 2.2 |  |  |  | 9.9 | 47 | 302 | 20 |  |

The next compounds have a lower IC50 [6] than those just listed; values first:

| Papp at 5 µM [1] [×10⁻⁶ cm/s] | hepatic extraction ratio at 5 µM [4] | EC50 [5] [nM] | IC50 [6] [nM] | Ki [6] [nM] | efflux ratio at 5 µM [7] | solubility thermodynamic [8] [µM] | IC50 [9] [nM] | Compound | inhibition at 10 µM [2] [%] | EC50 ([3]; Homo sapiens, KG-1) [nM] | inhibition at 1 µM [10] [%] | other results |
| --- | --- | --- | --- | --- | --- | --- | --- | --- | --- | --- | --- | --- |
| 0.18 | 0 | 18 | 0.6 | 0.1 | 8.8 | 144 (≈ 54.9 µg/mL) | 2.7 | NC(=O)c1cc(Cl)c2c(Cl)c(C#CCCO)n([C@H]3CCCNC3)c2n1 | 25 | 56 | 12 |  |
| 0.08 | 0 | 59 | 1.7 | 3 | 120 |  | 11 | NC(=O)c1cc(Cl)c2c(Cl)c(C#CCO)n([C@H]3CCCNC3)c2n1 | 28 | 301 | 22 |  |
| 3 | 0.21 | 28 | 0.7 |  | 2.5 | 13 (≈ 4.9 µg/mL) | 9 | NC(=O)c1cc(Cl)c2c(Cl)c(C#CC3CC3)n([C@H]3CCCNC3)c2n1 | 97 | 207 | 53 | inhibition [20]: Active |
